From patent US11186577B2, “Vasopressin receptor antagonists and products and methods related thereto” (BlackThorn Therapeutics, Inc., priority 2017, dated 2021)
Read-outs that look alike come from different tables or passages of the source. One block for each molecule: values may come before it.

How the values were obtained:
[1] = molecular target: human Arginine Vasopressin Receptor 1a (AVPR1a) (Homo sapiens (Human), UniProt P37288); experiment: Vasopressin V1A receptor antagonist assay (AVP-evoked calcium, FLIPR, CHO-AVPR1a cells); format: cell-based
Chain of human Arginine Vasopressin Receptor 1a (AVPR1a) (P37288 whole entry): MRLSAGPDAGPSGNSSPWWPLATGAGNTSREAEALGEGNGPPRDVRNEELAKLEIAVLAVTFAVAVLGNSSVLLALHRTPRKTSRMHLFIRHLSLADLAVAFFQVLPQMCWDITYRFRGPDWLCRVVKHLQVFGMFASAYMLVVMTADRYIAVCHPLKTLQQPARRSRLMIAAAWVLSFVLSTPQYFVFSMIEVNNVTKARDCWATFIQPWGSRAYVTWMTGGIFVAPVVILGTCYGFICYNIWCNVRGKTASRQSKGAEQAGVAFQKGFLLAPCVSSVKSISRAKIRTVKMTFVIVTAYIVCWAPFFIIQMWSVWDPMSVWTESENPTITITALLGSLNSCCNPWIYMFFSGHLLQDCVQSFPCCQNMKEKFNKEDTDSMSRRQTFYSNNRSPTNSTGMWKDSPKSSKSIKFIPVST
Outline: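 CHO cells expressing human AVPR1a, Calcium-6 dye loaded 60-90 min, preincubated with compound 15 min at 37° C., then challenged with AVP at its daily-determined EC80. FLIPR fluorescence; 10-point 1:3 series from 3 μM, duplicates.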

[2] = molecular target: human Oxytocin Receptor (hOTR) (Homo sapiens (Human), UniProt P30559); experiment: Oxytocin receptor antagonist assay (oxytocin-evoked calcium, FLIPR, CHEM-1-hOTR cells); format: cell-based; conditions: read-out: OT IC50
Chain of human Oxytocin Receptor (hOTR) (P30559 whole entry): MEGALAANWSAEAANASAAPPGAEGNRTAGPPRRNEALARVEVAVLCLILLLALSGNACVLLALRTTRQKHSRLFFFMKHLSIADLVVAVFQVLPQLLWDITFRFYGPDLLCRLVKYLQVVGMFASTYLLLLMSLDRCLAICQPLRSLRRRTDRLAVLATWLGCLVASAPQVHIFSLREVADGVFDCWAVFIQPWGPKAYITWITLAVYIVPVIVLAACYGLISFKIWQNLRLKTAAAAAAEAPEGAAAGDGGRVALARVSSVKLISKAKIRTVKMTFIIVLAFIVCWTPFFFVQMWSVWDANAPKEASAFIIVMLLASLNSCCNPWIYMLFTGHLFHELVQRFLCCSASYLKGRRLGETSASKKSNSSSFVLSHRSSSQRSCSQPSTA
Outline: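 Antagonist mode in CHEM-1-hOTR cells loaded with Calcium-6 dye; compounds (10-point, 1:3 series) preincubated 15 min at 37 °C, then oxytocin added at daily-determined EC80 in HBSS/20 mM HEPES with 0.1% BSA. Fluorescence (ex 470-495, em 515-575 nm) followed 3 min on FLIPR^TETRA; concentration-dependent reduction of oxytocin response measured.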

Compound: CCOC(=O)N1Cc2cc(Cl)ccc2-n2c(C3CC4(C3)CN(c3ccc(F)cn3)C4)nnc2C1C (single isomer, unassigned) [Cpd 169A]
IC50 ([1]; read-out: V1a IC50): < 100 nM | IC50 [2]: 100 to 500 nM

Compound: COCCN1Cc2cc(Cl)ccc2-n2c(nnc2C2CC3(C2)CN(c2ccccn2)C3)C1 [compound 39, 8-chloro-5-(2-methoxyethyl)-1-(2-(pyridin-2-yl)-2-azaspiro[3.3]heptan-6-yl)-5,6-dihydro-4H-benzo[f][1,2,4]triazolo[4,3-a][1,4]diazepine]
IC50 ([1]; read-out: V1a IC50): < 100 nM | IC50 [2]: > 1000 nM

Compound: Clc1ccc2c(c1)CN(C1COC1)Cc1nnc(C3CC4(C3)CN(c3ccccn3)C4)n1-2 [compound 57, 8-chloro-5-(oxetan-3-yl)-1-(2-(pyridin-2-yl)-2-azaspiro[3.3]heptan-6-yl)-5,6-dihydro-4H-benzo[f][1,2,4]triazolo[4,3-a][1,4]diazepine]
IC50 ([1]; read-out: V1a IC50): < 100 nM | IC50 [2]: > 1000 nM

Compound: COC(=O)N1Cc2cc(Cl)ccc2-n2c(C3CC4(C3)CN(c3ncccn3)C4)nnc2C1C (single isomer, unassigned) [Cpd 166A]
IC50 ([1]; read-out: V1a IC50): < 100 nM | IC50 [2]: > 1000 nM

IC50 ([1]; in vitro antagonist assay, reference compounds, read-out: V1A IC50): < 100 nM | IC50 ([2]; in vitro antagonist assay, reference compounds): > 1000 nM
Compound: CN1Cc2cc(Cl)ccc2-n2c(nnc2[C@H]2CC[C@H](Oc3ccccn3)CC2)C1 [balovaptan, reference compound]

Compound: CN1Cc2cc(Cl)ccc2-n2c(nnc2C2CC3(C2)CN(c2ccccn2)C3)C1 [compound 2]
IC50 ([1]; read-out: V1a IC50): < 100 nM | IC50 [2]: > 1000 nM

Compound: CC1c2nnc(C3CC4(C3)CN(c3ncccn3)C4)n2-c2ccc(Cl)cc2CN1C(=O)OC1CC1 (single isomer, unassigned) [Cpd 171B]
IC50 ([1]; read-out: V1a IC50): 500 to 1000 nM | IC50 [2]: > 1000 nM

Compound: CC(CF)N1Cc2cc(Cl)ccc2-n2c(nnc2C2CC3(C2)CN(c2ccccn2)C3)C1 (stereo not shown) [compound 58]
IC50 ([1]; read-out: V1a IC50): < 100 nM | IC50 [2]: > 1000 nM

Compound: CC1c2nnc(C3CC4(C3)CN(c3ncccn3)C4)n2-c2ccc(Cl)cc2CN1C(=O)OC1CC1 (stereo not shown) [compound 171]
IC50 ([1]; read-out: V1a IC50): < 100 nM | IC50 [2]: > 1000 nM

Compound: CC1c2nnc(C3CC4(C3)CN(c3ccc(F)cn3)C4)n2-c2ccc(Cl)cc2CN1C (single isomer, unassigned) [Cpd 179A]
IC50 ([1]; read-out: V1a IC50): < 100 nM | IC50 [2]: > 1000 nM

Compound: COC(=O)N1Cc2cc(Cl)ccc2-n2c(nnc2C2CC3(C2)CN(c2ccccn2)C3)C1 [compound 70]
IC50 ([1]; read-out: V1a IC50): < 100 nM | IC50 [2]: 500 to 1000 nM

Compound: CC(C)C(=O)N1Cc2cc(Cl)ccc2-n2c(nnc2C2CC3(C2)CN(c2ccccn2)C3)C1 [compound 71]
IC50 ([1]; read-out: V1a IC50): < 100 nM | IC50 [2]: > 1000 nM

Compound: CCOC(=O)N1Cc2cc(Cl)ccc2-n2c(C3CC4(C3)CN(c3ccc(F)cn3)C4)nnc2C1C (stereo not shown) [compound 169]
IC50 ([1]; read-out: V1a IC50): < 100 nM | IC50 [2]: 100 to 500 nM

Compound: COC(=O)N1Cc2cc(Cl)ccc2-n2c(C3CC4(C3)CN(c3cccc(C)n3)C4)nnc2C1C (stereo not shown) [compound 180]
IC50 ([1]; read-out: V1a IC50): < 100 nM | IC50 [2]: 100 to 500 nM

Compound: Clc1ccc2c(c1)CN(C1CCC1)Cc1nnc(C3CC4(C3)CN(c3ccccn3)C4)n1-2 [compound 41]
IC50 ([1]; read-out: V1a IC50): < 100 nM | IC50 [2]: 500 to 1000 nM

Compound: CC1c2nnc(C3CC4(C3)CN(c3ncc(F)cn3)C4)n2-c2ccc(Cl)cc2CN1C(=O)OC1CC1 (single isomer, unassigned) [Cpd 192A]
IC50 ([1]; read-out: V1a IC50): < 100 nM | IC50 [2]: > 1000 nM

Compound: O=C(C(F)F)N1Cc2cc(Cl)ccc2-n2c(nnc2C2CC3(C2)CN(c2ccccn2)C3)C1 [compound 122]
IC50 ([1]; read-out: V1a IC50): < 100 nM | IC50 [2]: > 1000 nM

Compound: FCCN1Cc2cc(Cl)ccc2-n2c(nnc2C2CC3(C2)CN(c2ccccn2)C3)C1 [compound 59]
IC50 ([1]; read-out: V1a IC50): < 100 nM | IC50 [2]: > 1000 nM

Compound: CCC(=O)N1Cc2cc(Cl)ccc2-n2c(nnc2C2CC3(C2)CN(c2ccccn2)C3)C1 [compound 67]
IC50 ([1]; read-out: V1a IC50): < 100 nM | IC50 [2]: > 1000 nM

Compound: CC(C)OC(=O)N1Cc2cc(Cl)ccc2-n2c(C3CC4(C3)CN(c3ncccn3)C4)nnc2C1C (single isomer, unassigned) [Cpd 167A]
IC50 ([1]; read-out: V1a IC50): 100 to 500 nM | IC50 [2]: 500 to 1000 nM

Compound: CC1c2nnc(C3CC4(C3)CN(c3ncc(F)cn3)C4)n2-c2ccc(Cl)cc2CN1C(=O)OC1(C)CC1 (stereo not shown) [compound 173]
IC50 ([1]; read-out: V1a IC50): < 100 nM | IC50 [2]: 100 to 500 nM

Compound: CCN1Cc2cc(Cl)ccc2-n2c(nnc2C2CC3(C2)CN(c2cnccn2)C3)C1 [compound 46]
IC50 ([1]; read-out: V1a IC50): < 100 nM | IC50 [2]: > 1000 nM

Compound: CCOC(=O)N1Cc2cc(Cl)ccc2-n2c(nnc2C2CC3(C2)CN(c2ccc(F)cn2)C3)C1 [compound 69]
IC50 ([1]; read-out: V1a IC50): < 100 nM | IC50 [2]: 100 to 500 nM
